Test results: a melting point compilation (Tetko et al.; mined from patent text by program, amines drawn as free bases though some values may be those of a salt)

With `CCOC(=O)NCCOC(=O)COc1cc(Oc2ccc(C(F)(F)F)cc2Cl)ccc1[N+](=O)[O-]` as the compound, how does the melting point read?
Its melting point is 94 to 95 °C.

With `CCOC(=O)n1c(=S)[nH]c2ccc(Br)cc2c1=O` as the compound, how does the melting point read?
Its melting point is 214 °C.

With `C[C@@H]1CC[C@@H](C(C)(C)c2ccccc2)[C@@H](Oc2cn(C(c3ccccc3)c3ccccc3)c(=O)o2)C1` as the compound, how does the melting point read?
Its melting point is 118 to 120 °C.

With `CCc1coc2c(-c3ccc(F)cc3)c(-c3ccc(S(N)(=O)=O)cc3)nn12` as the compound, how does the melting point read?
Its melting point is 234 to 236 °C.

With `CC1=CC(=O)C(=NNc2ccc(C#N)cc2)C(=O)O1` as the compound, how does the melting point read?
The melting point was 300 °C.

Which melting point does the source give for `CCc1cc(-c2cccc(NC(C)=O)n2)c(OC)cc1OCCN(C)C` here?
The melting point was 114 °C.

Which melting point does the source give for `Cc1nc2sccn2c1-c1ccc(C#N)cc1` here?
The melting point was 88 to 91 °C.

For `CC(=S)Nc1ccc(-c2nc3ccccc3o2)cc1`, which melting point is on record?
Its melting point is 212 to 214 °C.

Which melting point does the source give for `O=C(O)c1ccc(-c2cnc3c(c2)N(Cc2cc(F)ccc2F)CCN3)cc1` here?
The melting point was greater than 300 °C.

For `Cc1cccc(C)c1Nc1c(-c2c(Cl)cccc2OCC(N)=O)nc2ccc(F)cn12`, which melting point is on record?
The melting point was 186 to 187 °C.

Which melting point does the source give for `CCCC(=O)c1c[nH]c2c(N3C(=O)c4ccccc4C3=O)cccc2c1=O` here?
Its melting point is 318 to 320 °C.

For `O=C1N(Cc2cn(C(c3ccccc3)(c3ccccc3)c3ccccc3)cn2)CCN1c1cccc(Cl)c1`, which melting point is on record?
Its melting point is 162 to 166 °C.

For `N#Cc1ccc(C(=O)C(Br)C(Br)c2ccc(C#N)cc2)cc1` (stereo not given), which melting point is on record?
Its melting point is 192 to 193 °C.

Which melting point does the source give for `Cc1cc(-c2nnnn2C2CC2)ccc1N` here?
Its melting point is 139 to 140 °C.

For `Cc1ncc(-c2cccc(Nc3ncnc4c3CCOc3ccccc3-4)c2)n1C`, which melting point is on record?
Its melting point is 235 to 237 °C.

For `CCCn1c(=O)c2[nH]c(C3CCCC3)nc2n(CCc2ccc(NC(=O)C(C)C)cc2)c1=O`, which melting point is on record?
The melting point was greater than 270 °C.

For `CC(=O)NC[C@H]1CN(c2ccc(N3CCC(n4nnc(-c5ccccc5)n4)CC3)c(F)c2)C(=O)O1`, which melting point is on record?
Its melting point is 212 to 214 °C.

Which melting point does the source give for `O=c1[nH]c2c(cc1S(=O)(=O)c1ccccc1)CCc1cc[nH]c1-2` here?
The melting point was 410 °C.

Which melting point does the source give for `CCCCCCCCCCCCCCCCCC(=O)c1cc(C(=O)OCC)ccc1O` here?
Its melting point is 74 °C.

With `Cc1cccc(N2Cc3ccccc3P2(=O)c2ccccc2)c1` (stereo not given) as the compound, how does the melting point read?
Its melting point is 190 to 192 °C.

Which melting point does the source give for `O=C(NCCCCCn1cncn1)c1ccc(Cl)cc1` here?
Its melting point is 68 to 70 °C.

With `c1csc(-c2ccc(-c3cc4ncnc(Nc5ccc6[nH]ccc6c5)c4s3)cc2)c1` as the compound, how does the melting point read?
Its melting point is 165 to 178 °C.

For `N#Cc1c(N)nc2ccccc2c1Nc1cccs1`, which melting point is on record?
The melting point was 208 to 209 °C.

For `O=C1NC(=O)C(c2c[nH]c3ccccc23)=C1c1c[nH]c2ccccc12`, which melting point is on record?
The melting point was 234 °C.

For `COC(=O)c1c(F)cc(OCCNC(=O)C2Cc3ccccc3N2S(=O)(=O)c2ccc(-c3ccc(F)cc3Cl)cc2)cc1F` (stereo not given), which melting point is on record?
Its melting point is 68 to 74 °C.

Which melting point does the source give for `O=C(C=Cc1ccc(-c2ccc(O)c(Cl)c2)cc1)NO` here?
Its melting point is 172 to 175 °C.

For `CCOc1cc(-n2c(=O)cc(C(F)(F)F)[nH]c2=O)c(F)cc1Br`, which melting point is on record?
The melting point was 161 to 162 °C.

With `CS(=O)(=O)Nc1ccc(F)c(C(=O)O)c1` as the compound, how does the melting point read?
The melting point was 203 to 205 °C.

For `N#Cc1ccc(C(=O)c2ccc(OC3OCC(O)C(O)C3O)cc2)cc1` (stereo not given), which melting point is on record?
Its melting point is 189 °C.

With `CC(C)c1[nH]n(-c2c(Cl)cc(Cl)cc2Cl)c2nc(Cc3ccc(NC(=O)N4CCN(C)CC4)cc3)nc(=O)c1-2` as the compound, how does the melting point read?
Its melting point is 251 to 253 °C.

With `c1ccc(CN2CCC(Oc3cnccn3)(c3ccccc3)CC2)cc1` as the compound, how does the melting point read?
The melting point was 107 to 108 °C.

For `CCNc1nc(CC)c(C(=O)c2ccc(Cl)c([N+](=O)[O-])c2)s1`, which melting point is on record?
The melting point was 149 to 152 °C.

For `COc1cc(OC)cc(C2CCCCC2=CC(=O)O)c1` (stereo not given), which melting point is on record?
The melting point was 154 to 156 °C.

For `Nc1cccc2c(=O)[nH]ncc12`, which melting point is on record?
Its melting point is 289 to 291 °C.

Which melting point does the source give for `CC(C)/C=C(\C[C@H](N)C(=O)O)C(=O)O` here?
Its melting point is greater than 200 °C.

For `O=C1OCCC1Oc1ccc(-c2ccccc2)cc1[N+](=O)[O-]` (stereo not given), which melting point is on record?
Its melting point is 117 to 119 °C.

For `CSc1ccc(N)c([N+](=O)[O-])c1`, which melting point is on record?
The melting point was 72 to 73 °C.

Which melting point does the source give for `O=c1ccn(-c2ccccc2Cl)nc1-c1ccnn1-c1ccccc1` here?
The melting point was 138 to 139 °C.

Which melting point does the source give for `CON=CNC(=O)c1ccc(Br)cc1C` here?
The melting point was 119 to 122 °C.

With `CC(N)Cc1cccc(N)c1` (stereo not given) as the compound, how does the melting point read?
The melting point was 78 to 79 °C.

Which melting point does the source give for `O=C1CC2(C(=O)N1)C(=O)N(Cc1ccc(Br)cc1F)c1ccccc12` (stereo not given) here?
The melting point was 218 to 220 °C.

With `C[C@H]1C(=O)Nc2ccc(Cl)cc2N1C(=O)Oc1ccc(Cl)cc1` as the compound, how does the melting point read?
The melting point was 185 to 188 °C.

With `O=C(O)c1ccccc1I(=O)=O` as the compound, how does the melting point read?
The melting point was 226 to 234 °C.

With `COc1ccc2nc(O)c(O)nc2c1` as the compound, how does the melting point read?
Its melting point is greater than 300 °C.

Which melting point does the source give for `O=C(Nc1ccccn1)C1=C(O)c2sc3ccccc3c2S(=O)(=O)N1` here?
Its melting point is 240 to 242 °C.

With `C=CCOC(=O)N1C[C@@H](S)C[C@H]1CNC(=O)c1ccc(C(=O)NCc2ccc(Cl)c(Cl)c2)cn1` as the compound, how does the melting point read?
Its melting point is 101 to 105 °C.

With `CCOc1ccc2[nH]c3c([N+](=O)[O-])cc([N+](=O)[O-])c(Cl)c3c(=O)c2c1` as the compound, how does the melting point read?
Its melting point is 238 to 241 °C.

With `COc1cc2[nH]c(=O)n(CCCS)c(=O)c2cc1OC` as the compound, how does the melting point read?
The melting point was 236 °C.

Which melting point does the source give for `CN(C)C(=O)CCCCCCCCCCCCO` here?
The melting point was 69 to 71 °C.

Which melting point does the source give for `COC(=O)C(C)Oc1cc(C)ccc1COc1ccc([N+](=O)[O-])c(F)c1` (stereo not given) here?
The melting point was 92 to 94 °C.
